Assay results as given in patent publication US20250163057A1, “DCN-1 MODULATING COMPOUNDS AND METHODS OF USE THEREOF” (Cellarity, Inc., priority 2023, published 2025).

Test system: HBG1 mRNA and HbF protein in bone marrow cells
Test: Induction of fetal hemoglobin by hydroxyurea and I-73 in human CD34+ cell reconstituted immunodeficient mice, with analysis of synergistic effect
Format: in vivo, NBSGW mice engrafted with human CD34+ cells
Method: The model employed for assessment of induction of fetal hemoglobin by I-73 and hydroxyurea involved the use of human stem cell-reconstituted immunodeficient mice. Specifically, three hundred thousand human CD34-positive cells from G-CSF-mobilized human peripheral blood […] (PBMCs) were injected into the tail veins of NOD.Cg-KitW-41J Tyr+Prkdcscid Il2rgtm1Wjl/ThomJ (NBSGW) mice (JAX Strain No. 026622) on day 0. Twelve weeks later, mice were checked for human cell engraftment by sampling PBMCs from blood taken from the tail vein and staining for expression of murine or human CD45 by flow cytometry. After removing from the study those mice having greater than 10% human cells or less than 1% human cells in their peripheral blood, the remaining mice were randomized into treatment groups based on the human cell percentage. Thirteen weeks post engraftment, treatment was initiated with either hydroxyurea, I-73, or a combination of both compounds. Hydroxyurea was formulated in PBS (pH 7.4) and I-73 was formulated in 5% Cremophor RH 40/20% hydroxypropyl-β-cyclodextrin (Crem-CD) daily. Mice received either PBS or hydroxyurea each morning and I-73 or Crem-CD each afternoon by oral gavage. After twenty days of daily treatment, the mice were euthanized and their bone marrow (femurs, tibia and critae) were individually collected for subsequent analysis.
Bone marrow cell pellets (total 500K cells) were lysed in 20 μL of RLT (QIAGEN, 79216) with 1×β-mercaptoethanol (Gibco, 21985-023) and H2O followed by hybridizations. Hybridizations were done in a total volume of 15 μL [3 μL of RNA lysate added to master mix of 12 μL probe A/B (purchased from IDT), capture probe/reporter probes (NanoString™, XT TagSet-24, 121000602), proteinase K (Fisher Scientific, E00491) and H2O suspended in hybridization buffer]. Samples were hybridized at 65° C. for 22 hr. Following hybridization, the tripartide complexes were purified, immobilized by nCounter Prep Station and imaged by Digital Analyzer (nCounter MAX/FLEX Analysis System), to generate digital counts of barcodes corresponding to each target in the multiplexed reaction. Labeled barcodes obtained from unamplified extracts were counted at 555 images or field of view (FOV). The barcode counts for each sample were recorded in Reporter Code Count (RCC) files that are imported into nSolver analysis software (provided with CodeSet by NS) for quality control evaluation.
To assess levels of fetal hemoglobin by AlphaLISA, cells (200 k bone marrow cells/well) were lysed by resuspending pellets in 200 μL of lysis buffer plus protease inhibitor cocktail (100×), mixed well and incubating at room temperature for 30 minutes on the plate shaker @300 RPMs. Samples were then diluted 1:10 in a new 96-well round bottom plate by taking 10 uL of lysate and adding 90 μL of AlphaLISA immunoassay buffer. To create the “reaction plate”, 20 μL of Acceptor Beads (50 ug/mL final concentration) was added to each well using a multi-channel pipet. 10 uL of diluted cell lysate was added to the wells and mixed well. 20 μL of AlphaLISA immunoassay buffer was added to each well. Biotinylated antibody (final concentration) was then added to each well. The reaction plate on then placed on a plate shaker at 300 rpm for one hour to incubate at room temperature. After the first incubation was complete, 50 μL of Donor Beads ([…] final concentration) was added to each well and mixed well, keeping the plate in the dark. The covered plate was placed on a shaker at 350 rpm for 30 minutes to incubate at room temperature. After incubation, all 100 uL in each to an AlphaPlate in the dark. Plates were read on a VictorNIVO using the “Alpha 96 Well” setting. Alpha reading was programmed as the default setting with emission at 700 ms and 575/110n. […]

With `CCN1C(=O)[C@@H](NC(=O)c2cccc(C(F)(F)F)c2)[C@@H](c2ccc(F)cc2)c2c([C@@H](C)NC#N)nn(-c3ccccc3)c21` [Compound I-73, N-((4S,5S)-3-((R)-1-cyanamidoethyl)-7-ethyl-4-(4-fluorophenyl)-6-oxo-1-phenyl-4,5,6,7-tetrahydro-1H-pyrazolo[3,4-b]pyridin-5-yl)-3-(trifluoromethyl)benzamide] the “average increase of HbF % over vehicle” value (I-73 25 mg/kg alone, WLS ANOVA estimate) was 1.11, the “percentage of HbF protein by HPLC in GlyA-positive bone marrow cells” value (compared with vehicle treatment group, FIG. 7) was “significant increase” and the “percentage of bone marrow cells expressing human CD45” value (in vivo) was “did not alter”. For the same compound, the “HbF level on a per erythroid progenitor (GlyA-positive) cell basis by AlphaLISA” value (treatment alone) was “induced increased levels of HbF”.
